Test results: patent publication US10131652B2, “Pyrimidinyloxy benzene derivatives as herbicides” (E. I. DU PONT DE NEMOURS AND COMPANY, priority 2014, dated 2018)

Experiments:
Type in all cases: in vivo
[1] = test system: ducksalad (Heteranthera limosa); assay: Test C flooded paddy test plant response; settings: Flood, 250 g ai/ha; scale of 0 to 100 where 0 is no effect and 100 is complete control; 13 to 15 days
In short: (§1)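 Greenhouse paddy assay, 13–15 days. Treatment into 3 cm floodwater over 2-leaf plants; visual 0–100 rating against controls.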

rice (Oryza sativa) = assay: Test C flooded paddy test plant response; settings: Flood, 250 g ai/ha; scale of 0 to 100 where 0 is no effect and 100 is complete control; 13 to 15 days
In short: as §1

[2] = test system: small-flower umbrella sedge (Cyperus difformis); assay: Test C flooded paddy test plant response; settings: Flood, 250 g ai/ha; scale of 0 to 100 where 0 is no effect and 100 is complete control; 13 to 15 days
In short: as §1

[3] = test system: barnyardgrass (Echinochloa crus-galli); assay: Test C flooded paddy test plant response; settings: Flood, 250 g ai/ha; scale of 0 to 100 where 0 is no effect and 100 is complete control; 13 to 15 days
In short: as §1

kochia (Kochia scoparia) = assay: Test B pre-/postemergence plant response
In short: (§2)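 Visual injury scores on a 0–100 scale (100 = complete control) relative to untreated plants, taken about 10 days post-treatment in greenhouse. Treatments were a directed preemergence soil spray and a postemergence spray at one- to two-leaf stage, using surfactant-containing solvent formulation.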

corn (Zea mays) = assay: Test B pre-/postemergence plant response
In short: as §2

[4] = test system: pigweed (Amaranthus retroflexus); assay: Test B pre-/postemergence plant response
In short: as §2

[5] = test system: wheat (Triticum aestivum); assay: Test B pre-/postemergence plant response
In short: as §2

[6] = test system: giant foxtail (Setaria faberii); assay: Test B pre-/postemergence plant response
In short: as §2

[7] = test system: Italian ryegrass (Lolium multiflorum); assay: Test B pre-/postemergence plant response
In short: as §2

[8] = test system: ragweed (common ragweed, Ambrosia elatior); assay: Test B pre-/postemergence plant response
In short: as §2

[9] = test system: barnyardgrass (Echinochloa crus-galli); assay: Test B pre-/postemergence plant response
In short: as §2

[10] = test system: blackgrass (Alopecurus myosuroides); assay: Test B postemergence plant response
In short: (§3)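 Visual injury ratings, 0 = no effect to 100 = complete control, versus untreated controls approximately 10 days after postemergence spraying in greenhouse. Plants were at one- to two-leaf stage, 2 to 10 cm tall, in loam soil/sand blend; a dash denotes no result.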

[11] = test system: galium (catchweed bedstraw, Galium aparine); assay: Test B postemergence plant response
In short: as §3

[12] = 31 g ai/ha, Postemergence, 0 to 100 scale, 0 no effect, 100 complete control
[13] = 31 g ai/ha, Preemergence, 0 to 100 scale where 0 is no effect and 100 is complete control
[14] = 125 g ai/ha, postemergence, 0 to 100 scale, 0 no effect, 100 complete control
[15] = Preemergence, 125 g ai/ha, 0 to 100 scale where 0 is no effect and 100 is complete control
[16] = Postemergence, 500 g ai/ha, 0 to 100 scale (0 no effect, 100 complete control)
[17] = Preemergence, 500 g ai/ha, 0 to 100 scale where 0 is no effect and 100 is complete control
[18] = Preemergence, 125 g ai/ha, 0 to 100 scale (0 no effect, 100 complete control)

| Compound | Ducksalad plant response rating [1] | Rice plant response rating (rice (Oryza sativa)) | Sedge, Umbrella plant response rating [2] | Barnyardgrass plant response rating [3] | Plant response rating, Kochia (kochia (Kochia scoparia); [13]) | Plant response rating, Kochia (kochia (Kochia scoparia); [14]) | Plant response rating, Kochia (kochia (Kochia scoparia); [15]) | Plant response rating, Corn (corn (Zea mays); [12]) | Plant response rating, Corn (corn (Zea mays); [14]) | Plant response rating, Pigweed [4, 13] | Plant response rating, Pigweed [4, 14] | Plant response rating, Wheat [5, 14] | Plant response rating, Foxtail, Giant [6, 12] | Plant response rating, Foxtail, Giant [6, 13] | Plant response rating, Foxtail, Giant [6, 14] | Plant response rating, Ryegrass, Italian [7, 14] | Plant response rating, Ragweed [8, 14] | Plant response rating, Barnyardgrass [9, 14] | Plant response rating, Blackgrass [10, 14] | Plant response rating, Galium [11, 14] | other results |
| --- | --- | --- | --- | --- | --- | --- | --- | --- | --- | --- | --- | --- | --- | --- | --- | --- | --- | --- | --- | --- | --- |
| Brc1cnc(Oc2ccccc2-c2cc(Br)no2)nc1 [Compound 119] | 40 | 0 | 40 | 0 | 0 | 30 | 10 | 0 | 0 | 0 | 80 | 0 | 0 | 0 | 10 | 0 | 10 | 0 | 0 | 60 | Plant response rating, Kochia (kochia (Kochia scoparia); [12]): 0; Plant response rating, Pigweed [4, 12]: 40; Plant response rating, Wheat [5, 12]: 0; Plant response rating, Foxtail, Giant [6, 15]: 50; Plant response rating, Ryegrass, Italian [7, 12]: 0; Plant response rating, Ryegrass, Italian [7, 13]: 0; Plant response rating, Ragweed [8, 12]: 10; Plant response rating, Ragweed [8, 13]: 0; Plant response rating, Barnyardgrass [9, 12]: 0; Plant response rating, Barnyardgrass [9, 13]: 0; Plant response rating, Barnyardgrass [9, 15]: 0; Plant response rating, Blackgrass [10, 12]: 0; Plant response rating, Galium [11, 12]: 30 |
| Clc1cnc(Oc2ccccc2-c2nnc(C3CC3)o2)nc1 [Compound 122] | 0 | 0 | 0 | 0 | 0 | 20 | 10 | 0 | 0 | 10 | 20 | 20 | 0 | 0 | 0 | 0 | 10 | 0 | 0 | 20 | Plant response rating, Foxtail, Giant [6, 15]: 0; Plant response rating, Ryegrass, Italian [7, 13]: 0; Plant response rating, Ragweed [8, 13]: 0; Plant response rating, Barnyardgrass [9, 12]: 0; Plant response rating, Barnyardgrass [9, 13]: 0; Plant response rating, Barnyardgrass [9, 15]: 0; Plant response rating, Blackgrass [10, 12]: 0 |
| CC(C)n1ncnc1-c1ccccc1Oc1ncc(Cl)cn1 [Compound 123] | 0 | 0 | 30 | 0 |  | 0 | 0 |  | 0 |  | 0 | 0 |  |  | 0 | 0 | 0 | 0 | 0 | 0 | Plant response rating, Kochia (kochia (Kochia scoparia); [16]): 0; Plant response rating, Kochia (kochia (Kochia scoparia); [17]): 0; Plant response rating, Corn (corn (Zea mays); [16]): 0; Plant response rating, Pigweed [4, 16]: 0; Plant response rating, Pigweed [4, 17]: 0; Plant response rating, Wheat [5, 16]: 0; Plant response rating, Foxtail, Giant [6, 16]: 0; Plant response rating, Foxtail, Giant [6, 15]: 0; Plant response rating, Foxtail, Giant [6, 17]: 0; Plant response rating, Ryegrass, Italian [7, 16]: 0; Plant response rating, Ryegrass, Italian [7, 17]: 0; Plant response rating, Ragweed [8, 16]: 0; Plant response rating, Ragweed [8, 17]: 0; Plant response rating, Barnyardgrass [9, 16]: 0; Plant response rating, Barnyardgrass [9, 15]: 0; Plant response rating, Barnyardgrass [9, 17]: 0; Plant response rating, Blackgrass [10, 16]: 0; Plant response rating, Galium [11, 16]: 0 |
| Fc1ccc(-c2cc(C(F)(F)F)no2)c(Oc2ncc(Cl)cn2)c1 [Compound 124] | 80 | 0 | 85 | 0 | 10 | 80 |  | 0 | 10 | 40 | 90 | 0 | 0 | 20 | 20 | 0 | 20 | 20 | 30 | 100 | Kochia plant response rating (kochia (Kochia scoparia); [18]): 60; Pigweed plant response rating [4, 18]: 100; Foxtail, Giant plant response rating [6, 18]: 100; Plant response rating, Ryegrass, Italian [7, 13]: 0; Ryegrass, Italian plant response rating [7, 18]: 10; Plant response rating, Ragweed [8, 13]: 0; Ragweed plant response rating [8, 18]: 10; Plant response rating, Barnyardgrass [9, 12]: 0; Plant response rating, Barnyardgrass [9, 13]: 0; Barnyardgrass plant response rating [9, 18]: 30; Plant response rating, Blackgrass [10, 12]: 0 |
